Broadly, the IC50 is the concentration that inhibits the measured activity by half. High values mean a need for much substance, low ones inhibition by little substance.

Each structure is given as a SMILES string.

For assay [1], the system named is HBV (extracellular HBsAg) in primary human hepatocytes. The assay can be described thus: Cryopreserved primary human hepatocytes (PHH) HBV infection assay, HBsAg. It counts as cell-based. As to conditions: Hepatitis B virus, Hepatocyte, 216 h, HBV-infected cryopreserved PHH, 9 days post-compound treatment, CLIA. Here is the method: This assay is used to confirm the anti-HBV effect of the compounds in HBV PHH infection assay. Cryopreserved PHH (BioreclamationIVT, Lot YJM) was thawed at 37° C. and gently transferred into pre-warmed InVitroGRO HT medium (BioreclamationIVT, Cat. S03317).
The mixture was centrifuged at 70 relative centrifugal force (RCF) for 3 minutes at RT, and the supernatant was discarded. Pre-warmed InVitroGRO CP medium (BioreclamationIVT, Cat #S03316) was added to the cell pellet to gently re-suspend cells. The cells were seeded at the density of 5.8×10^4 cells per well to collagen I coated 96-well plate (Gibco, Cat. A1142803) with the InVitroGRO CP medium. All plates were incubated at 37° C. with 5% CO2 and 85% humidity.
At 20 hours after plating, the medium was changed to PHH culture medium (Dulbecco's Modified Eagle Medium (DMEM)/F12 (1:1) (Gibco, Cat. 11320-033), 10% fetal bovine serum (Gibco Cat. 10099141), 100 U/mL penicillin, 100 μg/mL streptomycin (Gibco, Cat. 151401-122), 5 ng/mL human epidermal growth factor (Invitrogen Cat. PHG0311L), 20 ng/mL dexamethasone (Sigma, Cat. D4902) and 250 ng/mL human recombinant insulin (Gibco, Cat. 12585-014)). And the cells were incubated at 37° C. with 5% CO2 and 85% humidity for 4 hours. The medium was then changed to pre-warmed PHH culture medium containing 4% polyethylene glycol (PEG) MW8000 (Sigma, Cat. P1458-50 ML) and 1% DMSO (Sigma, Cat. D2650). 5.8×10^6 genomic equivalents of HBV were added into the medium.
At 24 hours' post-infection, the cells were gently washed with PBS and refreshed with PHH culture medium supplemented with 1% DMSO, and 0.25 mg/mL Matrix gel (Corning, Cat. 356237) at 200 μL per well. All plates were immediately placed in at 37° C. CO2 incubator.
24 hours later, serial dilutions of compounds made with DMSO were further diluted with the same culture medium (PHH culture medium supplemented with 1% DMSO and 0.25 mg/mL Matrix gel as described above) before they were added to the cells to reach desired final compound concentrations and 1% DMSO concentration. The medium containing the compounds were refreshed every three days.
At 9 days' post-compound treatment, extracellular HBsAg level were measured with Chemiluminescence Immuno Assay (CLIA) kit (Autobio, HBsAg Quantitative CLIA).
HBsAg IC50 and HBV DNA IC50 values were derived from the dose-response curve using 4 parameters logistic curve fit method. The compounds of formula (I) have HBsAg IC50<20 μM, particularly <1 μM; and HBV DNA IC50<50 μM.

Assay [2] concerns HBV cccDNA (HBeAg as surrogate marker) in HepDES19 cells. The assay is described as follows: Engineered HepDES19 primary screen assay (HBeAg as surrogate marker for cccDNA). It counts as cell-based. The settings on record: Hepatitis B virus, HepDES19, 120 h. An excerpt: The assay was employed to screen for cccDNA inhibitors. HepDES19 is a cccDNA-producing cell line. In this cell line, HBeAg in the cell culture supernatant as surrogate marker, as HBeAg production depends on cccDNA level and activity. HepDES19 is an engineered cell line which contains a 1.1 unit length HBV genome, and pgRNA transcription from the transgene is controlled by Tetracycline (Tet). In the absence of Tet, pgRNA transcription will be induced, but HBV e antigen (HBeAg) could not be produced from this pgRNA due to very short leader sequence before the HBeAg start codon and the start codon is disrupted. Only after cccDNA is formed, the missing leader sequence and start codon mutation would be restored from the 3′-terminal redundancy of pgRNA, and then HBeAg could be synthesized. Therefore, HBeAg could be used as a surrogate marker for cccDNA (Zhou, T. et al., Antiviral Res. (2006), 72 (2), 116-124; Guo, H. et al., J. Virol. (2007), 81 (22), 12472-12484).
HepDES19 cells were seeded at 2×10^6 cells per T150 flask and cultured with the culture medium (Dulbecco's Modified Eagle Medium: Nutrient Mixture F-12 [DMEM-F12, Gibco Cat. 11320-82], 10% Fetal Bovine Serum [FBS, Clontech Cat. 631101], 0.1 mM Non-Essential Amino Acids Solution [NEAA, Gibco Cat. 11140-050], 50 μg/mL Penicillin-Streptomycin [PS, Invitrogen Cat. 15140-163], 500 μg/mL Geneticin [G418, Invitrogen Cat. 10131-027]) containing 3 μg/mL Tet (Sigma, Cat. 87128) for 5 days. Cells were then seeded at 4×10^6 cells per T150 in the same culture medium as described above in the absence of Tet for 8 days. Cells were then harvested and frozen at density of 2×10^6 cells per mL. For compound testing, the frozen cells were thawed and seeded into 96-well plates at a density of 6×10^4 cells per well. At 24 hours after seeding, half log serial dilutions of compounds made with Dimethyl sulfoxide (DMSO, Sigma, Cat. D2650) were further diluted with the same culture medium as described above before they were added to the cells to reach desired final compound concentrations and 1% DMSO concentration. Plates were then incubated at 37° C. for another 5 days before measurement of HBeAg level and cell viability. Intracellular HBeAg level were measured with enzyme-linked immunosorbent assay (ELISA) kit (Shanghai Kehua Diagnostic Medical Products Co., Ltd). Cell viability was assessed using Cell Counting Kit-8 (DonJindo, Cat. CK04-20). IC50 values were derived from the dose-response curve using 4 parameters logistic curve fit method.
The compounds of the present invention were tested for their capacity to inhibit extracellular HBeAg level as described herein.

Turning to `O=C(O)CCOc1cc(C(F)(F)F)ccc1C1CC(=O)c2cccc(Cl)c2O1` (stereo not shown) [Example 1, 3-[2-(8-chloro-4-oxo-chroman-2-yl)-5-(trifluoromethyl)phenoxy]propanoic Acid], the IC50 in assay [1] worked out at 5.31 µM; in assay [2] it was 0.73 µM.
As for `O=C(O)CCOc1cc(C(F)(F)F)ccc1C1CC(=O)c2ccc(F)c(Cl)c2O1` (stereo not shown) [Example 2, 3-[2-(8-chloro-7-fluoro-4-oxo-chroman-2-yl)-5-(trifluoromethyl)phenoxy]propanoic Acid], the IC50 in assay [1] came to 4.41 µM; in assay [2], 1.97 µM.
On to `O=C(O)CCOc1cc(C(F)(F)F)ccc1C1CC(=O)c2cc(F)cc(Cl)c2O1` (stereo not shown) [Example 3, 3-[2-(8-chloro-6-fluoro-4-oxo-chroman-2-yl)-5-(trifluoromethyl)phenoxy]propanoic Acid], for which the IC50 turned out to be 11.2 µM in assay [1] and 5.59 µM in assay [2].
With `COc1cc(C2CC(=O)c3cccc(Cl)c3O2)c(OCCC(=O)O)cc1C(F)(F)F` (stereo not shown) [Example 11, 3-[2-(8-chloro-4-oxo-chroman-2-yl)-4-methoxy-5-(trifluoromethyl)phenoxy]propanoic Acid], the IC50 in assay [1] was 8.34 µM; in assay [2] it was 5.14 µM.
`O=C(O)CCOc1cc(OC(F)(F)F)ccc1C1CC(=O)c2cccc(Cl)c2O1` (stereo not shown) [Example 13, 3-[2-(8-chloro-4-oxo-chroman-2-yl)-5-(trifluoromethoxy)phenoxy]propanoic Acid]: the IC50 in assay [1] is 6.86 µM; in assay [2], 0.39 µM.
As to `O=C1CC(c2ccc(C(F)(F)F)cc2OCCO)Oc2c1ccc(F)c2Cl` (stereo not shown) [Example 34, 8-chloro-7-fluoro-2-[2-(2-hydroxyethoxy)-4-(trifluoromethyl)phenyl]chroman-4-one], the IC50 in assay [2] turned out to be 3.36 µM.
For the compound `O=C(O)C(=O)NCCOc1cc(Cl)ccc1C1CC(=O)c2cccc(Cl)c2O1` (stereo not shown) [Example 36, 2-[2-[5-chloro-2-(8-chloro-4-oxo-chroman-2-yl)phenoxy]ethylamino]-2-oxo-acetic Acid], in assay [2], the IC50 turned out to be 12.9 µM.
In assay [2], `O=C1CC(c2ccc(Br)cc2O[C@H]2C[C@@H](C(=O)O)C2)Oc2c(Cl)cccc21` (stereo partly drawn) [Example 37, cis-3-[5-bromo-2-(8-chloro-4-oxo-chroman-2-yl)phenoxy]cyclobutanecarboxylic Acid] yielded a half-inhibitory concentration (IC50) of 0.67 µM.
